This is an account of results in US9115122B2, “Non-ATP dependent inhibitors of extracellular signal-regulated kinase (ERK)” (UNIVERSITY OF MARYLAND, BALTIMORE, priority 2012, dated 2015).

Assay in all cases: Cell proliferation WST-1 assay, single dose (Example 4)
What all share (type): cell-based
What all share (details): 100 μM, 48 hours
In general terms: Formazan colour is commonly taken as a measure of viable cells.

The subject of one data set is HL-60 leukemic cells. Here is the method: (§1) In addition, compounds were tested in RPMI-7951 cells, which also contain mutated BRaf and are resistant to BRaf inhibitors due to the overexpression of MAP3K8 (the gene encoding COT/Tp12) that provides an alternative mechanism to indirectly or directly activate ERK proteins. […] For comparison, HeLa cervical carcinoma and Jurkat T-cell leukemia cells, which are p53 defective cancer cell lines but contain no known activating mutations in the ERK pathway, were studied. […] Cell proliferation was evaluated by water soluble tetrazolium-1 (WST-1) assay as previously described. Briefly, cells (˜5000/well) were seeded in 96 well plates, allowed to recover for 16-20 hours, and then treated with the indicated test compound for 48 hours. After incubation, WST-1 reagent was added and absorbance was read at 450 nm with background subtraction taken at 650 nm. Values were normalized to the control (DMSO only treated) cells.

The subject of another data set is A375 melanoma cells. The procedure: as §1
The next data set relates to SK-MEL-28 melanoma cells. The procedure:
as §1

Another data set deals with RPMI-7951 melanoma cells. Here is the method: as §1
The subject of data set [1] is Jurkat T-cell leukemia cells. The procedure: as §1
Data set [2] concerns HeLa cervical carcinoma cells. The procedure: as §1

Take `CCOc1ccc(/C=C2\SC(=O)N(CCN(C)C)C2=O)cc1` [Compound 24a, (Z)-3-(2-(dimethylamino)ethyl)-5-(4-ethoxybenzylidene)thiazolidine-2,4-dione]: in the data set with HL-60 leukemic cells, the “Cell Viability (% of Vehicle) HL-60” value is 110 ± 14 % of Vehicle. In the data set with A375 melanoma cells, the “Cell Viability (% of Vehicle) A375” value is given as 115 ± 2 % of Vehicle. The “Cell Viability (% of Vehicle) SK-MEL-28” value with SK-MEL-28 melanoma cells is given as 101 ± 0.3 % of Vehicle. For the same compound, in the data set with RPMI-7951 melanoma cells, the “Cell Viability (% of Vehicle) RPMI-7951” value is 130 ± 4 % of Vehicle. The “Cell Viability (% of Vehicle) Jurkat” value in data set [1] is on record as 95 ± 1 % of Vehicle. Also, the “Cell Viability (% of Vehicle) HeLa” value in data set [2] was 90 ± 5 % of Vehicle.

On to `CCOc1ccc(/C=C2\SC(=O)N(CCN(Cc3ccccc3)Cc3ccccc3)C2=O)cc1` [Compound 24b, (Z)-3-(2-(dibenzylamino)ethyl)-5-(4-ethoxybenzylidene)thiazolidine-2,4-dione], for which, in the data set with HL-60 leukemic cells, the “Cell Viability (% of Vehicle) HL-60” value is reported as 109 ± 24 % of Vehicle. In addition, in the data set on A375 melanoma cells, the “Cell Viability (% of Vehicle) A375” value is recorded as 122 ± 7 % of Vehicle. In addition, the “Cell Viability (% of Vehicle) SK-MEL-28” value in the data set with SK-MEL-28 melanoma cells was 104 ± 4 % of Vehicle. The “Cell Viability (% of Vehicle) RPMI-7951” value in the data set on RPMI-7951 melanoma cells is recorded as 120 ± 3 % of Vehicle. Moreover, in data set [1], the “Cell Viability (% of Vehicle) Jurkat” value was 104 ± 2 % of Vehicle. For the same compound, the “Cell Viability (% of Vehicle) HeLa” value in data set [2] is 92 ± 9 % of Vehicle.

As to `CCOc1ccc(/C=C2\SC(=O)N(CCN(Cc3ccc(C#N)cc3)Cc3cccc(C#N)c3)C2=O)cc1` [Compound 24c, (Z)-3-(((4-cyanobenzyl)(2-(5-(4-ethoxybenzylidene)-2,4-dioxothiazolidin-3-yl)ethyl)amino)methyl)benzonitrile], in the data set with HL-60 leukemic cells, the “Cell Viability (% of Vehicle) HL-60” value is recorded as 108 ± 16 % of Vehicle. For the same compound, the “Cell Viability (% of Vehicle) A375” value in the data set with A375 melanoma cells is reported as 115 ± 1 % of Vehicle. Moreover, the “Cell Viability (% of Vehicle) SK-MEL-28” value with SK-MEL-28 melanoma cells is listed as 107 ± 3 % of Vehicle. In the data set on RPMI-7951 melanoma cells, the “Cell Viability (% of Vehicle) RPMI-7951” value is recorded as 108 ± 9 % of Vehicle. The “Cell Viability (% of Vehicle) Jurkat” value in data set [1] is on record as 100 ± 2 % of Vehicle. Also, the “Cell Viability (% of Vehicle) HeLa” value in data set [2] was 97 ± 8 % of Vehicle.

`CCOc1ccc(/C=C2\SC(=O)N(CCNC(C)=O)C2=O)cc1` [Compound 25a, (Z)—N-(2-(5-(4-ethoxybenzylidene)-2,4-dioxothiazolidin-3-yl)ethyl)acetamide]: the “Cell Viability (% of Vehicle) HL-60” value in the data set with HL-60 leukemic cells is 106 ± 23 % of Vehicle. Moreover, in the data set on A375 melanoma cells, the “Cell Viability (% of Vehicle) A375” value is on record as 121 ± 4 % of Vehicle. Besides, in the data set on SK-MEL-28 melanoma cells, the “Cell Viability (% of Vehicle) SK-MEL-28” value was 105 ± 2 % of Vehicle. Also, the “Cell Viability (% of Vehicle) RPMI-7951” value with RPMI-7951 melanoma cells is 124 ± 5 % of Vehicle. Further, the “Cell Viability (% of Vehicle) Jurkat” value in data set [1] is 105 ± 8 % of Vehicle. Also, in data set [2], the “Cell Viability (% of Vehicle) HeLa” value is 100 ± 11 % of Vehicle.

In the case of `CCOc1ccc(/C=C2\SC(=O)N(CCNC(=O)C(F)(F)F)C2=O)cc1` [Compound 25b, (Z)—N-(2-(5-(4-ethoxybenzylidene)-2,4-dioxothiazolidin-3-yl)ethyl)-2,2,2-trifluoroacetamide], in the data set on HL-60 leukemic cells, the “Cell Viability (% of Vehicle) HL-60” value is 101 ± 23 % of Vehicle. In addition, the “Cell Viability (% of Vehicle) A375” value with A375 melanoma cells is reported as 118 ± 4 % of Vehicle. The “Cell Viability (% of Vehicle) SK-MEL-28” value in the data set on SK-MEL-28 melanoma cells was 105 ± 2 % of Vehicle. Moreover, in the data set on RPMI-7951 melanoma cells, the “Cell Viability (% of Vehicle) RPMI-7951” value is listed as 127 ± 3 % of Vehicle. The “Cell Viability (% of Vehicle) Jurkat” value in data set [1] is listed as 103 ± 6 % of Vehicle. Further, the “Cell Viability (% of Vehicle) HeLa” value in data set [2] is given as 98 ± 11 % of Vehicle.

On to `CCOc1ccc(/C=C2\SC(=O)N(CCNC(=O)OC(C)(C)C)C2=O)cc1` [Compound 25c, (Z)-tert-butyl (2-(5-(4-ethoxybenzylidene)-2,4-dioxothiazolidin-3-yl)ethyl)carbamate], for which the “Cell Viability (% of Vehicle) HL-60” value in the data set with HL-60 leukemic cells is recorded as 31 ± 5 % of Vehicle. Further, the “Cell Viability (% of Vehicle) A375” value in the data set on A375 melanoma cells is given as 84 ± 2 % of Vehicle. Besides, the “Cell Viability (% of Vehicle) SK-MEL-28” value in the data set on SK-MEL-28 melanoma cells is recorded as 73 ± 1 % of Vehicle. In addition, in the data set with RPMI-7951 melanoma cells, the “Cell Viability (% of Vehicle) RPMI-7951” value is 62 ± 7 % of Vehicle. In data set [1], the “Cell Viability (% of Vehicle) Jurkat” value was 92 ± 7 % of Vehicle. The “Cell Viability (% of Vehicle) HeLa” value in data set [2] is on record as 81 ± 1 % of Vehicle.

In the case of `CCOc1ccc(/C=C2\SC(=O)N(CCNC(=O)c3ccc(C#N)cc3)C2=O)cc1` [Compound 25d, (Z)-4-cyano-N-(2-(5-(4-ethoxybenzylidene)-2,4-dioxothiazolidin-3-yl)ethyl)benzamide], the “Cell Viability (% of Vehicle) HL-60” value with HL-60 leukemic cells is recorded as 101 ± 12 % of Vehicle. The “Cell Viability (% of Vehicle) A375” value with A375 melanoma cells is recorded as 118 ± 3 % of Vehicle. Also, the “Cell Viability (% of Vehicle) SK-MEL-28” value with SK-MEL-28 melanoma cells is 103 ± 2 % of Vehicle. The “Cell Viability (% of Vehicle) RPMI-7951” value in the data set on RPMI-7951 melanoma cells is recorded as 122 ± 10 % of Vehicle. The “Cell Viability (% of Vehicle) Jurkat” value in data set [1] was 102 ± 7 % of Vehicle. The “Cell Viability (% of Vehicle) HeLa” value in data set [2] is on record as 99 ± 9 % of Vehicle.

`CCOc1ccc(/C=C2\SC(=O)N(CCNC(=O)OC)C2=O)cc1` [Compound 26a, (Z)-methyl (2-(5-(4-ethoxybenzylidene)-2,4-dioxothiazolidin-3-yl)ethyl)carbamate]: in the data set on HL-60 leukemic cells, the “Cell Viability (% of Vehicle) HL-60” value is 104 ± 31 % of Vehicle. Further, the “Cell Viability (% of Vehicle) A375” value with A375 melanoma cells is reported as 96 ± 4 % of Vehicle. For the same compound, in the data set on SK-MEL-28 melanoma cells, the “Cell Viability (% of Vehicle) SK-MEL-28” value was 88 ± 3 % of Vehicle. Further, in the data set on RPMI-7951 melanoma cells, the “Cell Viability (% of Vehicle) RPMI-7951” value is reported as 102 ± 4 % of Vehicle. Moreover, the “Cell Viability (% of Vehicle) Jurkat” value in data set [1] is given as 97 ± 7 % of Vehicle. In data set [2], the “Cell Viability (% of Vehicle) HeLa” value is 84 ± 4 % of Vehicle.

`CCOc1ccc(/C=C2\SC(=O)N(CCNC(=O)OC(C)(C)C)C2=O)cc1` [Compound 26b, (Z)-tert-butyl (2-(5-(4-ethoxybenzylidene)-2,4-dioxothiazolidin-3-yl)ethyl)carbamate]: the “Cell Viability (% of Vehicle) HL-60” value in the data set with HL-60 leukemic cells is reported as 95 ± 21 % of Vehicle. Also, in the data set on A375 melanoma cells, the “Cell Viability (% of Vehicle) A375” value was 88 ± 3 % of Vehicle. The “Cell Viability (% of Vehicle) SK-MEL-28” value in the data set on SK-MEL-28 melanoma cells is listed as 83 ± 5 % of Vehicle. The “Cell Viability (% of Vehicle) RPMI-7951” value in the data set on RPMI-7951 melanoma cells was 67 ± 4 % of Vehicle. The “Cell Viability (% of Vehicle) Jurkat” value in data set [1] is reported as 111 ± 9 % of Vehicle. In addition, in data set [2], the “Cell Viability (% of Vehicle) HeLa” value was 88 ± 5 % of Vehicle.

As to `CCOc1ccc(/C=C2\SC(=O)N(CCNC(=O)OCC(C)C)C2=O)cc1` [Compound 26c, (Z)-isobutyl (2-(5-(4-ethoxybenzylidene)-2,4-dioxothiazolidin-3-yl)ethyl)carbamate], the “Cell Viability (% of Vehicle) HL-60” value with HL-60 leukemic cells is 80 ± 28 % of Vehicle. The “Cell Viability (% of Vehicle) A375” value in the data set on A375 melanoma cells is 102 ± 4 % of Vehicle. Besides, in the data set with SK-MEL-28 melanoma cells, the “Cell Viability (% of Vehicle) SK-MEL-28” value is reported as 94 ± 1 % of Vehicle. Further, the “Cell Viability (% of Vehicle) RPMI-7951” value in the data set with RPMI-7951 melanoma cells is given as 75 ± 12 % of Vehicle. For the same compound, the “Cell Viability (% of Vehicle) Jurkat” value in data set [1] is recorded as 110 ± 4 % of Vehicle. In addition, the “Cell Viability (% of Vehicle) HeLa” value in data set [2] is 95 ± 3 % of Vehicle.

For `CCOc1ccc(/C=C2\SC(=O)N(CCNC(=O)OCc3ccccc3)C2=O)cc1` [Compound 26d, (Z)-benzyl (2-(5-(4-ethoxybenzylidene)-2,4-dioxothiazolidin-3-yl)ethyl)carbamate], the “Cell Viability (% of Vehicle) HL-60” value in the data set on HL-60 leukemic cells was 85 ± 27 % of Vehicle. In addition, the “Cell Viability (% of Vehicle) A375” value in the data set on A375 melanoma cells is reported as 103 ± 3 % of Vehicle. The “Cell Viability (% of Vehicle) SK-MEL-28” value in the data set with SK-MEL-28 melanoma cells was 97 ± 1 % of Vehicle. Also, the “Cell Viability (% of Vehicle) RPMI-7951” value with RPMI-7951 melanoma cells is recorded as 54 ± 6 % of Vehicle. Also, the “Cell Viability (% of Vehicle) Jurkat” value in data set [1] is 112 ± 5 % of Vehicle. Further, the “Cell Viability (% of Vehicle) HeLa” value in data set [2] was 98 ± 6 % of Vehicle.
